US10525055B2, “Opioid receptor antagonist prodrugs” (Nirsum Laboratories, Inc., priority 2017, dated 2020)

Key:
[1] = Liver S9 fraction stability, monkey; format: in vitro ADME, cynomolgus monkey; settings: 1.0 mg/ml S9 protein, 2 μM, 37° C.
Procedure: (§1) Liver S9 fraction stability determination of the test compounds in dog, cynomolgus monkey and human is performed using HPLC-MS. Test compound (2 μM, 0.1% DMSO, 1% Methanol final concentration) was assessed for stability in a 50 μl phosphate buffer containing 1.0 mg/ml S9 protein from each of the three species and 5 mM D-saccharic acid-1, 4-lactone. Samples were incubated at 37° C. for 60 minutes and the % compound remaining was assessed.

[2] = Plasma stability assay, rat plasma; format: in vitro ADME; settings: 37° C., 10 μM
[3] = Plasma stability assay, dog plasma; format: in vitro ADME; settings: 37° C., 2 μM; for % remaining at time point in minutes, 15 min: 15 min (as headed); for % remaining at time point in minutes, 120 min: 120 min (as headed); for % remaining at time point in minutes, 480 min: 480 min (as headed); for % remaining at time point in minutes, 1440 min: 1440 min (as headed)
Procedure: (§2) Plasma stability determination of the test compounds in rat, dog, cynomolgus monkey and human plasma is performed using HPLC-MS. For rat, incubations are carried out in 96-well polypropylene plates in 5 aliquots of 70 μL each (one for each time point). […] Five time points are analyzed (0, 15, 120, 480 and 1440 min). […] All incubations are performed in duplicates. The samples are analyzed by HPLC-MS. The percentage of parent compound remaining after incubation in plasma is determined.

[4] = Liver S9 fraction stability, dog; format: in vitro ADME; settings: 1.0 mg/ml S9 protein, 2 μM, 37° C.
Procedure: as §1

[5] = Liver S9 fraction stability, human; format: in vitro ADME; settings: 1.0 mg/ml S9 protein, 2 μM, 37° C.
Procedure: as §1

[6] = Plasma stability assay, human plasma; format: in vitro ADME; settings: 37° C., 2 μM; for % remaining at time point in minutes, 15 min: 15 min (as headed); for % remaining at time point in minutes, 120 min: 120 min (as headed); for % remaining at time point in minutes, 480 min: 480 min (as headed); for % remaining at time point in minutes, 1440 min: 1440 min (as headed)
Procedure: as §2

[7] = Plasma stability assay, monkey plasma; format: in vitro ADME, cynomolgus monkey; settings: 37° C., 2 μM; for % remaining at time point in minutes, 15 min: 15 min (as headed); for % remaining at time point in minutes, 120 min: 120 min (as headed); for % remaining at time point in minutes, 480 min: 480 min (as headed); for % remaining at time point in minutes, 1440 min: 1440 min (as headed)
Procedure: as §2

[8] = Rat pharmacokinetic studies, intramuscular; format: in vivo, male Sprague Dawley Rats; settings: rat IM, Sesame oil + 1% Benzyl Alcohol
Procedure: The purpose of this study is to determine the pharmacokinetics of test compounds in plasma, following intramuscular administration to male Sprague Dawley Rats (n=3, unless otherwise specified).
The dose formulation of 400 mg base equivalents/ml in sesame oil+1% benzyl alcohol (unless otherwise specified) was administered by intramuscular injection. The dose volume was determined by the animals' body weight determined on the morning of dosing day.
Each collected blood sample was centrifuged for 4 minutes at 4° C. and 10000 rpm for plasma collection. Plasma was collected and transferred into a pre-labeled PP tube in dry ice at each time point and precipitated immediately using ACN at a ratio of 1:4 (plasma:ACN). Centrifuged again (10 minutes, 12000 rpm) and obtain the supernatant.
After terminal collection, all supernatant was stored at approximately −80° C. until bioanalysis.
LC-MS/MS methods for the quantitative determination of test compound in biological matrix were developed. […] The sample analysis was performed concurrently with a set of calibration standards and two sets of QC samples using the LC-MS/MS method.
Plasma concentration versus time data was analyzed by non-compartmental approaches using the Phoenix WinNonlin 6.3 software program. Cmax, Tmax, T1/2, AUC(0-t), AUC(0-inf), MRT(0-t), MRT(0-inf) and graphs of plasma concentration versus time profile were prepared.

[9] = Dog pharmacokinetic studies, deep intramuscular; format: in vivo, Beagle dogs; settings: dog IM, Sesame oil + 1% Benzyl Alcohol
[10] = Solubility determination in oil (cottonseed oil, sesame oil)
Procedure: A known amount of test substance (˜40 mg) was weighed into the vial, 100 μL of oil was added and heated to 60° C. and then system was slurried to reach equilibrium. […] Extra oil was added into the vial once compound precipitated out and then the system was re-equilibrated at 1000 rpm at room temperature (25° C.). Final concentration was determined by HPLC method as described below in Table 6a and 6b.

[11] = Polymorph screening of solid state drug substances; settings: for XRPD results (Dried): stirred 50 °C 72 hours, solids dried; for Visual observation 50° C. / Visual observation RT: target conc. 100 mg/ml
[12] = Physical characterization of solid state drug substance (PLM, XRPD, DSC, TGA); format: physicochemical; settings: at 120° C., heated from room temperature at 10° C./minute
Procedure: The analysis of the physical characteristics of drug substances that were in a solid state was conducted using polarized light microscopy (PLM), X-ray powder diffractometer (XRPD) assessment, Differential Scanning calorimetry (DSC) and Thermal Gravimetric Analysis (TGA). For PLM, samples were dispersed in immersion oil and were observed using an ocular lens (10×) and objective lens (20×) under crossed polarizers. For XRPD, samples were run on a diffractometer using the following method: Tube—Cu: K-alpha (λ=1.54179 Å); Generator—Voltage 40 kV, Current 40 mA; Scan scope—3 to 40°; sample rotation speed—15 rpm; scanning rate—10 deg/min. For DSC, ˜1 mg of sample was tested using a crimped aluminum pan and covered by a lid with a hole, heated from room temperature to 300° C. at a speed of 10° C./minute. For TGA, 2-5 mg of sample was placed in an open platinum pan and heated from room temperature to 300° C. at a rate of 10° C./minute.

Row | Structure (SMILES) | Liver S9 Fraction Stability % remaining at 60 minutes, Monkey [1] | % remaining at time point in minutes, 0 min [2] | % remaining at time point in minutes, 15 min [2] | % remaining at time point in minutes, 120 min [2] | % remaining at time point in minutes, 480 min [2] | % remaining at time point in minutes, 1440 min [2] | % remaining at time point in minutes, 0 min [3] | % remaining at time point in minutes, 15 min [3] | % remaining at time point in minutes, 120 min [3] | % remaining at time point in minutes, 480 min [3] | % remaining at time point in minutes, 1440 min [3] | Liver S9 Fraction Stability % remaining at 60 minutes, Dog [4] | Liver S9 Fraction Stability % remaining at 60 minutes, Human [5] | % remaining at time point in minutes, 0 min [6] | % remaining at time point in minutes, 15 min [6] | % remaining at time point in minutes, 120 min [6] | % remaining at time point in minutes, 480 min [6] | % remaining at time point in minutes, 1440 min [6] | % remaining at time point in minutes, 0 min [7] | % remaining at time point in minutes, 15 min [7] | other results
1 | CCCCCCCCCCCC(=O)OCN1C(=O)CCc2ccc(OCCCCN3CCN(c4cccc(Cl)c4Cl)CC3)cc21 [Aripiprazole lauroxil, reference compound] | 56.6% | 100% | 84% | 85.5% | 76.4% | 46% | 100% | 103% | 81.3% | 78.6% | 74.3% | 66.1% | 47.8% | 100% | 99.7% | 80% | 73.2% | 75.5% | 100% | 95.2% | % remaining at time point in minutes, 120 min [7]: 94.5%; % remaining at time point in minutes, 480 min [7]: 75.5%; % remaining at time point in minutes, 1440 min [7]: 83.2%
2 | C=C1CC[C@@]2(O)C3Cc4ccc(OC(=O)CCCCCCC/C=C/CCCCCCCC)c5c4[C@@]2(CCN3CC2CC2)[C@H]1O5 [Compound 15, (4aS,7aS,12bS)-3-(cyclopropylmethyl)-4a-hydroxy-7-methylene-2,3,4,4a,5,6,7,7a-octahydro-1H-4,12-methanobenzofuro[3,2-e]isoquinolin-9-yl (E)-octadec-9-enoate] | 76.7% | 100% | 72% | 69.3% | 52% | 35% | 100% | 82.5% | 80.6% | 90.1% | 86.1% | 80.9% | 59.8% | 100% | 83.3% | 82.5% | 107.1% | 109.0% | 100% | 74.5% | AUC0-inf (ng · h/mL) prodrug ([8]; 80 mg/kg): 679 ng·h/mL; AUC0-inf (ng · h/mL) prodrug ([8]; 123 mg/kg): 2574 ng·h/mL; AUC0-inf (ng · h/mL) prodrug ([8]; 165 mg/kg): 2789 ng·h/mL; Half-life t1/2 (hour) prodrug ([8]; 165 mg/kg): 500 h; AUC0-inf (ng · h/mL) prodrug ([9]; 30 mg/kg): 521 ng·h/mL; Half-life t1/2 (hour) prodrug ([9]; 30 mg/kg): 134 h; AUC0-inf (ng · h/mL) prodrug ([9]; 48 mg/kg): 1144 ng·h/mL; Half-life t1/2 (hour) prodrug ([9]; 48 mg/kg): 518 h; AUC0-inf (ng · h/mL) prodrug ([9]; 96 mg/kg): 1353 ng·h/mL; Half-life t1/2 (hour) prodrug ([9]; 96 mg/kg): 162 h; Approximate Solubility (mg/mL) in Excipient: Sesame oil ([10]; heating temp. 40 °C, obs. temp. 40 °C): <52 mg/mL; Approximate Solubility (mg/mL) in Excipient: Sesame oil ([10]; heating temp. 60 °C, obs. temp. 25 °C): >396.5 mg/mL; % remaining at time point in minutes, 120 min [7]: 72.7%; % remaining at time point in minutes, 480 min [7]: 80.6%; % remaining at time point in minutes, 1440 min [7]: 76.5%
3 | CCCCCCCCCCCCCCCC(=O)Oc1ccc2c3c1O[C@H]1C(=O)CC[C@@]4(O)C(C2)N(CC2CC2)CC[C@]314 [Compound 55, (4aS,7aR,12bS)-3-(cyclopropylmethyl)-4a-hydroxy-7-oxo-2,3,4,4a,5,6,7,7a-octahydro-1H-4,12-methanobenzofuro[3,2-e]isoquinolin-9-yl palmitate] |  | 100% | 77.3% | 47.2% | 27.1% | 15.6% |  |  |  |  |  |  |  |  |  |  |  |  |  |  | XRPD results (Dried) ([11]; Acetone): Pattern B; Visual observation 50° C. ([11]; Acetone): Clear; Visual observation RT ([11]; Acetone): Slurry; XRPD results (Dried) ([11]; EtOAc): Pattern B; Visual observation 50° C. ([11]; EtOAc): Clear; Visual observation RT ([11]; EtOAc): Slurry; XRPD results (Dried) ([11]; Heptane): Pattern B; Visual observation 50° C. ([11]; Heptane): Clear; Visual observation RT ([11]; Heptane): Slurry; XRPD results (Dried) ([11]; Isopropanol): Pattern B; Visual observation 50° C. ([11]; Isopropanol): Clear; Visual observation RT ([11]; Isopropanol): Slurry; XRPD results (Dried) ([11]; MTBE): Pattern B; Visual observation 50° C. ([11]; MTBE): Clear; Visual observation RT ([11]; MTBE): Clear; Comment: stability of initial crystal form (pattern A) ([11]; polymorph screen over Heptane, MTBE, Isopropanol, EtOAc, Acetone): Cannot determine which crystal form; Approximate Solubility (mg/mL) in Excipient: Ethanol ([10]; Ethanol, heating temp. 60 °C, obs. temp. 40 °C): >401.1 mg/mL; Approximate Solubility (mg/mL) in Excipient: Sesame oil ([10]; heating temp. 60 °C, obs. temp. 40 °C): >394.8 mg/mL; Thermal Gravimetric Analysis, weight loss [12]: Weight loss of 0.2597%
4 | CCCCCCCCCCCCCCCC(=O)OC1CCCn2c1nc(C)c(CCN1CCC(c3noc4cc(F)ccc34)CC1)c2=O (stereo not shown) [Paliperidone palmitate, reference compound] | 57.4% |  |  |  |  |  | 100% | 91.2% | 88.4% | 95.9% | 93.1% | 56.4% | 47.8% | 100% | 103.7% | 97.6% | 109.1% | 104.1% | 100% | 92% | % remaining at time point in minutes, 120 min [7]: 89.5%; % remaining at time point in minutes, 480 min [7]: 98.4%; % remaining at time point in minutes, 1440 min [7]: 92.5%
